The results in this text go back to PubChem BioAssay (NCI).

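Tested at 5 concentrations; 48 h exposure; 96-well plates; endpoints linearly interpolated, else capped at highest concentration. At the GI50, growth is halved. TGI denotes the concentration required for complete inhibition of growth.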 Some results are limits rather than exact numbers.

The test system of one experiment is HCT-116 colon. The experiment is described as follows: DTP human tumour cell line panel, 48 h.
Consider `COC(=O)C[C@H]1CCC2(OCCO2)[C@]1(C)C(=O)OC`, for which the TGI was over 100 µM.
`CCCCCCCCCC[C@@H](O)[C@@H]1CC[C@H]([C@H]2CC[C@@H]([C@@H](O)CCCCCCCCCC[C@H]3CC(CC(C)=O)C(=O)O3)O2)O1` (stereo partly drawn) had a TGI of 17.8 µM. In other words, the double-digit micromolar range.
Turning to `CCOc1ccc2c(c1)[n+]([O-])c(S(=O)(=O)c1ccc(C)cc1)c(N)[n+]2[O-]`, the TGI is over 100 µM.
Still for that read-out and setting: to `CC12CC[C@@H](C(C)(C)O)C1[C@@H](O)CC1(C)C2CCC2[C@@]3(C)CC[C@H](O)C(C)(C)C3C(O)C[C@]21C` (stereo partly drawn) belongs 31.3 µM; to `CCOC(=O)NC(=O)c1cn(C2OC(COC(=O)CCCCCCCCC(=O)OCC3OC(n4cc(C(=O)NC(=O)OCC)c(=O)[nH]c4=O)C(O)C3O)C(O)C2O)c(=O)[nH]c1=O` (stereo not drawn), over 100 µM; to `Cc1ccc(C)c(NC(=O)CC/C(=N\NC(=O)C(=O)NN)C(C)C(=O)c2ccc(O)cc2)c1` (stereo not drawn), over 100 µM.
The same measure, in the same setting: the same measure for `N=C1CSC2=NC3=C(CCC/C3=C\c3ccccc3)C(c3ccccc3)N12` (stereo not drawn): 13.2 µM.
The compound `COc1ccccc1C1C(C(=O)Nc2ccccc2)=C(C)NC(C)=C1C(=O)Nc1ccccc1` yielded a total growth inhibition concentration (TGI) of over 100 µM.
`CCCCCCCCCCCC(=O)CC(=O)c1c(O)cccc1O` had a TGI of 31.1 µM.
Consider `Cc1cc2c(cc1C)[n+](=O)c(C(=O)CC(=O)C(=O)Nc1c(C(C)C)cccc1C(C)C)c(C)n2[O-]`, for which the TGI was over 100 µM.
For the compound `COc1ccc2cc1Oc1ccc(cc1)CC1c3cc(c(OC)cc3CCN1C)Oc1c3c(cc4c1C(C2)N(C)CC4)OCO3` (stereo not drawn), the TGI is 26.8 µM.
Turning to `O=C1CNCCCN2CCN(CCCNCC(=O)Nc3ccc(cc3)S(=O)(=O)c3ccc(cc3)NC(=O)CNCCCN3CCN(CCCNCC(=O)Nc4ccc(cc4)S(=O)(=O)c4ccc(cc4)N1)CC3)CC2`, the TGI is over 80.4 µM.
Turning to `N#Cc1ccc(C#Cc2ccccc2C#CCCCCO)cc1`, the GI50 is 12.7 µM and the TGI amounted to 25.3 µM.
For the compound `O=NN(Cc1ccc(Cl)cc1)C(C(=O)O)c1ccccc1` (stereo not drawn), the TGI was over 100 µM.

The next experiment has as its system LOX IMVI melanoma. The experiment is described as follows: DTP human tumour cell line panel, 48 h.
In turn, `CC1(Cl)C(=O)NC(=O)N(C2CC(N=[N+]=[N-])C(CO)O2)C1N=[N+]=[N-]` (stereo not drawn) yielded a TGI of over 100 µM.
The compound `COc1ccc2ccc3c(c2c1)CN1CCc2cc(OC)c(OC)cc2C1C3` (stereo not drawn) showed a TGI of over 100 µM.
As to `OCCC1(O)CCC(O)CC1` (stereo not drawn), the TGI is over 100 µM.
In turn, `CCCCNC1=C(C(=O)OCC)C(=O)CO1` returned a TGI of over 100 µM.
Consider `CC(C)CC(=O)[O-].CC(C)CC(=O)[O-].N.N.N.N.[Co+3].[O-][Cl+3]([O-])([O-])[O-]`, for which the GI50 was over 100 µM and the TGI is over 100 µM.
On to `COc1cc(C2c3cc4c(cc3C(NCC(O)CO)C3COC(=O)[C@H]23)OCO4)cc(OC)c1OC` (stereo partly drawn), for which the TGI is over 100 µM.
As for `COC(=O)CC(=O)C[P+](c1ccccc1)(c1ccccc1)c1ccccc1`, the TGI was over 218 µM.
With `CCCCN(CCCC)C(=O)C(=O)C(C#N)c1ccc(C)cc1` (stereo not drawn), the TGI was over 100 µM.
Still for that read-out and setting: the same measure for `Cc1ccc(S(=O)(=O)C(CC(=O)N2CCCC2)C(=O)c2ccccc2)cc1` (stereo not drawn): over 100 µM; for `CC1(C)CC(/C=C2/OC(=O)c3ccccc32)=C(C#N)C(=O)O1`: over 100 µM; for `Cc1nc2c(nc1Cl)nc(Oc1ccc(Cl)cc1)c1ccccc12`: over 100 µM.
`CC(=O)Nc1ccccc1Sc1ccccc1` gave a TGI of over 100 µM.
As for `CC1OC(n2cc(F)c(=O)[nH]c2=O)CCC1O` (stereo not drawn), the TGI is over 100 µM.
In the case of `COC(=O)C[C@H]1CCC2(OCCO2)[C@]1(C)C(=O)OC`, the TGI is over 100 µM.
The same measure, in the same setting: to `CCCCCCCCCC[C@@H](O)[C@@H]1CC[C@H]([C@H]2CC[C@@H]([C@@H](O)CCCCCCCCCC[C@H]3CC(CC(C)=O)C(=O)O3)O2)O1` (stereo partly drawn) belongs 36 µM; to `CCOC(=O)NC(=O)c1cn(C2OC(COC(=O)CCCCCCCCC(=O)OCC3OC(n4cc(C(=O)NC(=O)OCC)c(=O)[nH]c4=O)C(O)C3O)C(O)C2O)c(=O)[nH]c1=O` (stereo not drawn), over 100 µM.
As for `Cc1ccc(C)c(NC(=O)CC/C(=N\NC(=O)C(=O)NN)C(C)C(=O)c2ccc(O)cc2)c1` (stereo not drawn), the TGI is over 100 µM.
`N=C1CSC2=NC3=C(CCC/C3=C\c3ccccc3)C(c3ccccc3)N12` (stereo not drawn) showed a TGI of 4.96 µM. In other words, the single-digit micromolar range.
Regarding `COc1ccccc1C1C(C(=O)Nc2ccccc2)=C(C)NC(C)=C1C(=O)Nc1ccccc1`, the TGI is over 100 µM.
`CCCCCCCCCCCC(=O)CC(=O)c1c(O)cccc1O` gave a TGI of 32 µM.
The compound `Cc1cc2c(cc1C)[n+](=O)c(C(=O)CC(=O)C(=O)Nc1c(C(C)C)cccc1C(C)C)c(C)n2[O-]` came in with a TGI of over 100 µM.
`COc1ccc2cc1Oc1ccc(cc1)CC1c3cc(c(OC)cc3CCN1C)Oc1c3c(cc4c1C(C2)N(C)CC4)OCO3` (stereo not drawn): the TGI came out at 4.72 µM.
The compound `O=C1CNCCCN2CCN(CCCNCC(=O)Nc3ccc(cc3)S(=O)(=O)c3ccc(cc3)NC(=O)CNCCCN3CCN(CCCNCC(=O)Nc4ccc(cc4)S(=O)(=O)c4ccc(cc4)N1)CC3)CC2` gave a TGI of over 100 µM.
As for `N#Cc1ccc(C#Cc2ccccc2C#CCCCCO)cc1`, the GI50 was 18.3 µM and the TGI was determined as 32.5 µM.
For the compound `O=NN(Cc1ccc(Cl)cc1)C(C(=O)O)c1ccccc1` (stereo not drawn), the TGI is over 100 µM.

A further experiment deals with OVCAR-8 ovarian. The experiment is described as follows: DTP human tumour cell line panel, 48 h.
The compound `CC1(Cl)C(=O)NC(=O)N(C2CC(N=[N+]=[N-])C(CO)O2)C1N=[N+]=[N-]` (stereo not drawn) gave a TGI of over 100 µM.
`COc1ccc2ccc3c(c2c1)CN1CCc2cc(OC)c(OC)cc2C1C3` (stereo not drawn) came in with a TGI of over 100 µM.
Turning to `OCCC1(O)CCC(O)CC1` (stereo not drawn), the TGI was over 100 µM.
The compound `CCCCNC1=C(C(=O)OCC)C(=O)CO1` showed a TGI of over 100 µM.
Consider `CC(C)CC(=O)[O-].CC(C)CC(=O)[O-].N.N.N.N.[Co+3].[O-][Cl+3]([O-])([O-])[O-]`, for which the GI50 is over 100 µM and the TGI was over 100 µM.
As for `COc1cc(C2c3cc4c(cc3C(NCC(O)CO)C3COC(=O)[C@H]23)OCO4)cc(OC)c1OC` (stereo partly drawn), the TGI was over 100 µM.
`COC(=O)CC(=O)C[P+](c1ccccc1)(c1ccccc1)c1ccccc1` gave a TGI of over 218 µM.
Regarding `CCCCN(CCCC)C(=O)C(=O)C(C#N)c1ccc(C)cc1` (stereo not drawn), the TGI was over 100 µM.
The compound `Cc1ccc(S(=O)(=O)C(CC(=O)N2CCCC2)C(=O)c2ccccc2)cc1` (stereo not drawn) gave a TGI of over 100 µM.
Consider `CC1(C)CC(/C=C2/OC(=O)c3ccccc32)=C(C#N)C(=O)O1`, for which the TGI was over 100 µM.
The same measure, in the same setting: the same measure for `Cc1nc2c(nc1Cl)nc(Oc1ccc(Cl)cc1)c1ccccc12`: 68.2 µM; for `CC(=O)Nc1ccccc1Sc1ccccc1`: over 100 µM; for `CC1OC(n2cc(F)c(=O)[nH]c2=O)CCC1O` (stereo not drawn): over 100 µM.
Same read-out and setting: the same measure for `COC(=O)C[C@H]1CCC2(OCCO2)[C@]1(C)C(=O)OC`: over 100 µM; for `CCCCCCCCCC[C@@H](O)[C@@H]1CC[C@H]([C@H]2CC[C@@H]([C@@H](O)CCCCCCCCCC[C@H]3CC(CC(C)=O)C(=O)O3)O2)O1` (stereo partly drawn): 37.8 µM; for `CCOc1ccc2c(c1)[n+]([O-])c(S(=O)(=O)c1ccc(C)cc1)c(N)[n+]2[O-]`: over 100 µM.
`CC12CC[C@@H](C(C)(C)O)C1[C@@H](O)CC1(C)C2CCC2[C@@]3(C)CC[C@H](O)C(C)(C)C3C(O)C[C@]21C` (stereo partly drawn) gave a TGI of 41.2 µM.
With `CCOC(=O)NC(=O)c1cn(C2OC(COC(=O)CCCCCCCCC(=O)OCC3OC(n4cc(C(=O)NC(=O)OCC)c(=O)[nH]c4=O)C(O)C3O)C(O)C2O)c(=O)[nH]c1=O` (stereo not drawn), the TGI is over 100 µM.
`N=C1CSC2=NC3=C(CCC/C3=C\c3ccccc3)C(c3ccccc3)N12` (stereo not drawn) came in with a TGI of 19.5 µM.
Same read-out and setting: the same measure for `COc1ccccc1C1C(C(=O)Nc2ccccc2)=C(C)NC(C)=C1C(=O)Nc1ccccc1`: over 100 µM.

The term TGI denotes the concentration at which net growth stops. The low end stands for more potent growth arrest, the high end for less potent growth arrest. As a reminder, the GI50 is the concentration giving 50% growth inhibition.
